# Assay: acid dissociation constant (Ka) of the added compound, measured at a normal temperature
# Type: physicochemical
# Settings: not given
# Description: The acid dissociation constant value is what was measured at a normal temperature, and is described in, e.g., the annex vol. 2 to the "Dai Yuki-Kagaku (Complete Organic Chemistry)" (published by Asakura Publishing Co., Ltd.), "The Theory of Photographic Process" written by T. H. James, 4th ed. (Published by McMillan), and the like. For the measurement of the acid dissociation constant there are several methods, and reference may be made to, e.g., the "Jikken Kagaku Koza (Course of Experimental Chemistry)" vol. 11, second series, (published by Maruzen Co., Ltd.) pp. 524 to 552, and the like.
# To the above-prepared developer was added each of the compounds as given in Table 1 to thereby prepare color developers [A] to [M].
row,SMILES,pKa
1,Nc1ncnc2nc[nH]c12 [Exemplified compound S-11],9.8

# Same assay, conditions: normal temperature; read-out: acid dissociation constant (Ka) (converted)
row,SMILES,pKa
1,"c1c[nH]cn1 [Comparative compound (1), Imidazole]",7.2
2,"Cc1cc(O)n2ncnc2n1 [Comparative compound (2), 4-hydroxy-6-methyl-1,3,3a,7-tetrazaindene]",6.49
3,"Sc1nnnn1-c1ccccc1 [Comparative compound (3), 1-phenyl-5-mercaptotetrazole]",3.34
4,c1ccc2[nH]cnc2c1 [Exemplified compound S-1],11.7
5,CCCc1ccc2nc[nH]c2c1 [Exemplified compound S-5],10.3
